Experimental data as given in patent publication US11230538B2, “Herbicides” (SYNGENTA PARTICIPATIONS AG, priority 2016, dated 2022).

Tests used:
Assay type in all cases: in vivo
Setaria fabenri (SETFA) = test: B2 Post-emergence herbicidal activity; design: key: 5=total damage to plant; 0=no damage to plant; details: post-emergence application, rate 1000 g/ha, evaluated after 13 days
How it was run: (§1)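 Scores run from 0 for undamaged to 5 for fully killed plants, assessed 13 days post-spray. Application was post-emergence at 8 days of growth, using an acetone/water (50:50), 0.5% Tween 20 spray solution; growth at 24 °C day, 16 °C night, 65% humidity.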

[1] = test system: Triticum aestivium (TRZAW); test: B2 Post-emergence herbicidal activity; design: key: 5=total damage to plant; 0=no damage to plant; details: post-emergence application, rate 1000 g/ha, evaluated after 13 days
How it was run: as §1

[2] = test system: Alopecurus myosuroides (ALOMY); test: B2 Post-emergence herbicidal activity; design: key: 5=total damage to plant; 0=no damage to plant; details: post-emergence application, rate 1000 g/ha, evaluated after 13 days
How it was run: as §1

Setaria fabenr (SETFA) = test: B1 Pre-emergence herbicidal activity; design: key to Pre-emergence herbicidal activity, SETFA (damage score 0-5): 5=total damage to plant; 0=no damage to plant; details: pre-emergence application, rate 1000 g/ha, evaluated after 13 days
How it was run: (§2)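 Test species received a pre-emergence application one day post-sowing in an acetone/water solution with 0.5% Tween 20. Phytotoxicity was assessed 13 days later on a scale where 0 means no damage and 5 total plant death.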

Avena fatua (AVEFA) [3] = test: B1 Pre-emergence herbicidal activity; design: key: 5=total damage to plant; 0=no damage to plant; details: pre-emergence application, rate 1000 g/ha, evaluated after 13 days
How it was run: as §2

[4] = test system: Triticum aestivium (TRZAW); test: B1 Pre-emergence herbicidal activity; design: key: 5=total damage to plant; 0=no damage to plant; details: pre-emergence application, rate 1000 g/ha, evaluated after 13 days
How it was run: as §2

[5] = test system: Alopecurus myosuroides (ALOMY); test: B1 Pre-emergence herbicidal activity; design: key: 5=total damage to plant; 0=no damage to plant; details: pre-emergence application, rate 1000 g/ha, evaluated after 13 days
How it was run: as §2

Lolium perenne (LOLPE) [6] = test: B1 Pre-emergence herbicidal activity; design: key to Pre-emergence herbicidal activity, LOLPE (damage score 0-5): 5=total damage to plant; 0=no damage to plant; details: pre-emergence application, rate 1000 g/ha, evaluated after 13 days
How it was run: as §2

Avena fatua (AVEFA) [7] = test: B2 Post-emergence herbicidal activity; details: post-emergence application, rate 1000 g/ha, evaluated after 13 days
Protocol: (§3) Seeds of a variety of test species were sown in standard soil in pots: Triticum aestivium (TRZAW), Avena fatua (AVEFA), Alopecurus myosuroides (ALOMY), Echinochloa crus-galli (ECHCG), Lolium perenne (LOLPE), Zea Mays (ZEAMX), Abutilon theophrasti (ABUTH), Amaranthus retroflexus (AMARE) and Setaria fabenri (SETFA). After 8 days cultivation (post-emergence) under controlled conditions in a glasshouse (at 24/16° C., day/night; 14 hours light; 65% humidity), the plants were sprayed with an aqueous spray solution derived from the formulation of the technical active ingredient in acetone I water (50:50) solution containing 0.5% Tween 20 (polyoxyethelyene sorbitan monolaurate, CAS RN 9005-64-5). The test plants were then grown in a glasshouse under controlled conditions (at 24/16° C., day/night; 14 hours light; 65% humidity) and watered twice daily. After 13 days, the test was evaluated (5=total damage to plant; 0=no damage to plant).

[8] = test system: Echinochloa crus-galli (ECHCG); test: B1 Pre-emergence herbicidal activity; design: key to Pre-emergence herbicidal activity, ECHCG (damage score 0-5): 5=total damage to plant; 0=no damage to plant; details: pre-emergence application, rate 1000 g/ha, evaluated after 13 days
How it was run: as §2

[9] = test system: Echinochloa crus-galli (ECHCG); test: B2 Post-emergence herbicidal activity; design: key to Post-emergence herbicidal activity, ECHCG (damage score 0-5): 5=total damage to plant; 0=no damage to plant; details: post-emergence application, rate 1000 g/ha, evaluated after 13 days
How it was run: as §1

Lolium perenne (LOLPE) [10] = test: B2 Post-emergence herbicidal activity; design: key to Post-emergence herbicidal activity, LOLPE (damage score 0-5): 5=total damage to plant; 0=no damage to plant; details: post-emergence application, rate 1000 g/ha, evaluated after 13 days
Protocol: as §3

| SMILES | Post-emergence herbicidal activity, SETFA (damage score 0-5) (Setaria fabenri (SETFA)) | Post-emergence herbicidal activity, TRAZW (damage score 0-5) [1] | Post-emergence herbicidal activity, ALOMY (damage score 0-5) [2] | Pre-emergence herbicidal activity, SETFA (damage score 0-5) (Setaria fabenr (SETFA)) | Pre-emergence herbicidal activity, AVEFA (damage score 0-5) (Avena fatua (AVEFA) [3]) | Pre-emergence herbicidal activity, TRAZW (damage score 0-5) [4] | Pre-emergence herbicidal activity, ALOMY (damage score 0-5) [5] | Pre-emergence herbicidal activity, LOLPE (damage score 0-5) (Lolium perenne (LOLPE) [6]) | Post-emergence herbicidal activity, AVEFA (damage score 0-5) (Avena fatua (AVEFA) [7]) | Pre-emergence herbicidal activity, ECHCG (damage score 0-5) [8] | Post-emergence herbicidal activity, ECHCG (damage score 0-5) [9] | Post-emergence herbicidal activity, LOLPE (damage score 0-5) (Lolium perenne (LOLPE) [10]) |
| --- | --- | --- | --- | --- | --- | --- | --- | --- | --- | --- | --- | --- |
| Cc1nc(-c2cncc(F)c2)ccc1N(C(=O)C(C)C)C(=O)C(C)C [Compound C1] | 5 | 1 | 1 | 5 | 2 | 1 | 0 | 1 | 3 | 5 | 5 | 4 |
| Cc1nc(-c2cncnc2)ccc1NC(=O)C(C)C [Compound C2, 2-methyl-N-(2-methyl-6-pyrimidin-5-yl-3-pyridyl)propanamide] | 5 | 1 | 1 | 5 | 0 | 0 | 0 | 1 | 3 | 3 | 5 | 2 |
| Cc1nc(-c2cncc(F)c2)ccc1NC(=O)C(C)C [Compound C3] | 5 | 1 | 1 | 5 | 0 | 0 | 0 | 1 | 3 | 4 | 5 | 3 |
| CC(C)C(=O)N(C)c1ccc(-c2cncc(F)c2)nc1C(F)(F)F [Compound C4, N-[6-(5-fluoro-3-pyridyl)-2-(trifluoromethyl)-3-pyridyl]-N,2-dimethyl-propanamide] | 3 | 1 | 1 | 1 | 1 | 0 | 0 | 5 | 4 | 4 | 4 | 5 |
| CC(=O)N(C(C)=O)c1ccc(-c2cncc(F)c2)nc1C(F)(F)F [Compound C5, N-acetyl-N-[6-(5-fluoro-3-pyridyl)-2-(trifluoromethyl)-3-pyridyl]acetamide] | 5 | 0 | 1 | 5 | 3 | 0 | 1 | 1 | 4 | 4 | 4 | 4 |
| CC(=O)N(C(C)=O)c1ccc(-c2cncnc2)nc1C(F)(F)F [Compound C6] | 5 | 1 | 1 | 4 | 4 | 1 | 1 | 2 | 4 | 4 | 4 | 4 |
| CC(=O)Nc1ccc(-c2cncnc2)nc1C(F)(F)F [Compound C7] | 5 | 1 | 1 | 4 | 3 | 0 | 0 | 1 | 4 | 4 | 4 | 3 |
| CC(C)C(=O)Nc1ccc(-c2cncnc2)nc1C(F)(F)F [Compound C8] | 5 | 2 | 3 | 5 | 3 | 0 | 0 | 2 | 4 | 4 | 4 | 2 |
| CC(C)C(=O)Nc1ccc(-c2cncc(C#N)c2)nc1C(F)(F)F [Compound C11] | 5 | 0 | 1 | 4 | 0 | 0 | 0 | 1 | 2 | 1 | 3 | 1 |
| CC(C)C(=O)Nc1ccc(-c2cncc(Cl)c2)nc1C(F)(F)F [Compound C12] | 5 | 0 | 1 | 4 | 0 | 0 | 0 | 1 | 3 | 2 | 5 | 2 |
| CCC(=O)Nc1ccc(-c2cncnc2)nc1C#N [Compound C116] | 5 | 0 | 0 | 5 | 1 |  | 0 | 0 | 2 | 3 | 4 | 1 |
